Measurements reported in publication PMC3042124 (Organic & biomolecular chemistry, 2010).

How the values were obtained:
Type in all cases: biochemical
[1] = biological target: β1 subunit of the constitutive proteasome (Homo sapiens, UniProt P28072+Q99436)
[2] = biological target: β2 subunit of the constitutive proteasome (Homo sapiens, UniProt P49720+Q99436)
[3] = biological target: β5 subunit of the constitutive proteasome (Homo sapiens, UniProt P20618+P28074)

| SMILES | IC50 [1] [µM] | IC50 [2] [µM] | IC50 [3] [µM] |
| --- | --- | --- | --- |
| COc1ccc(C[C@H](NC(=O)Cc2ccc3ccccc3c2)C(=O)N[C@@H](Cc2ccccc2)C(=O)N[C@H](/C=C/S(=O)(=O)c2ccc(O)cc2)CC(C)C)cc1 [IIa, (Tyr(Me)-Phe-Leu-4-hydroxyphenyl-vinylsulfone)-2-(naphthalen-2-yl)-acetamide] | 32 ± 16 | 78 ± 23 | 0.07 ± 0.01 |
| COc1ccc(C[C@H](NC(=O)Cc2ccc3ccccc3c2)C(=O)N[C@@H](Cc2ccccc2)C(=O)N[C@H](/C=C/S(C)(=O)=O)CC(C)C)cc1 [IIb, (Tyr(Me)-Phe-Leu-methyl-vinylsulfone)-2-(naphthalen-2-yl)-acetamide] | > 100 | > 100 | 0.11 ± 0.02 |
| CCCC[C@H](NC(=O)[C@@H]1CCCN1C(=O)[C@H](C)NC(C)=O)C(=O)N[C@H](/C=C/S(=O)(=O)c1ccc(O)cc1)CC(C)C [Ia, Ac-Ala-Pro-Nle-Leu-4-hydroxyphenyl-vinylsulfone] | 4 ± 0.67 | > 100 | > 100 |
| CCCC[C@H](NC(=O)[C@@H]1CCCN1C(=O)[C@H](C)NC(C)=O)C(=O)N[C@H](/C=C/S(C)(=O)=O)CC(C)C [Ib, Ac-Ala-Pro-NLe-Leu-methyl-vinylsulfone] | 7.8 ± 0.86 | > 100 | > 100 |
